Data reported in US20240116885A1, “BENZOTHIAZOLE AND QUINOLINE DERIVATIVES AND THEIR USE” (Shanghai Yao Yuan Biotechnology Co., Ltd., priority 2020, published 2024).

Tests used:
ALPK1 = ALPK1 (Homo sapiens (Human), UniProt Q96QP1); assay: ALPK1 in vitro kinase assay (HTRF, TIFA phosphorylation); assay type: biochemical; details: ADP-Heptose activated ALPK1
Description: ALPK1 kinase activity was measured in an in vitro assay using ADP-Heptose as the ALPK1 ligand and activator of its kinase activity and TIFA protein as the ALPK1 phosphorylation substrate. Since phosphorylated TIFA proteins oligomerize, Homogeneous Time-Resolved Fluorescence (HTRF) was used to measure protein:protein interaction between HA-tagged TIFA proteins as an indicator of TIFA phosphorylation.
In brief, dose-response studies were performed with HEK293 cells cultured in Dulbecco's Modified Eagle Medium (DMEM) supplemented 10% fetal bovine serum (FBS, Hyclone™) containing antibiotics (pen/strep, G418) in 384-well assay plates. Each well contained 0.1 mg TIFA, ALPK1 (2 nM final concentration in reaction mixture) and kinase buffer (100 mM of HEPES pH 7.4, 4 mM DTT, 40 mM MgCl2, 20 mM of β-Glycerol phosphate disodium salt, 0.4 mM of Na3VO4, 0.16 mg/mL). Titrations of the test compounds were prepared in dimethylsulphoxide (DMSO). The reaction was initiated by addition of ATP and ADP-Heptose.
For HTRF, samples were incubated with a Tb cryptate-labeled anti-HA antibody for capturing HA-tagged proteins according to the manufacturer's instructions (PerkinElmer™, CisBio™) and the fluorescence signal was quantified (Tecan Infinite F NANO+). HTRF signals were calculated as the HTRF ratio (ratio of fluorescence measured at 665 nm and 620 nm)×104 (thereby using the signal at 620 nm as an internal standard).
IC50 values were determined using 3- or 4-parameter logistic equation using GraphPad Prism version 6.00. The reference compound, A027, was used as a positive control for each plate.

[1] = test system: ALPK1-dependent NFκB reporter gene activation; assay: NFκB gene reporter alkaline phosphatase assay in HEK293 G9 cells; assay type: cell-based; details: Homo sapiens; HEK293 G9 cells stimulated with D-glycero-D-manno-6-fluoro-heptose-1β-S-ADP
Description: An alkaline phosphatase reporter assay system was used to measure inhibition of ALPK1-dependent NFκB reporter gene activation. Briefly, HEK293 cells stably expressing an NF-kB reporter (referred to herein as “G9 cells”) were maintained in DMEM as described above. For the assay, cells were seeded into 96-well plates at a density of 10,000 cells/well in Freestyle™ 293 Expression Medium (ThermoFisher), and allowed to attach overnight. Cells were pretreated with serially diluted compounds for 30 min and then stimulated with D-glycero-D-manno-6-fluoro-heptose-1β-S-ADP. […] NFkB gene activation was detected using the chromogenic substrate, para-nitrophenyl phosphate (pNPP) according to the manufacturer's protocols (pNPP Phosphatase Assay, Beyotime Biotechnology).

Chain of ALPK1 (Q96QP1 whole entry): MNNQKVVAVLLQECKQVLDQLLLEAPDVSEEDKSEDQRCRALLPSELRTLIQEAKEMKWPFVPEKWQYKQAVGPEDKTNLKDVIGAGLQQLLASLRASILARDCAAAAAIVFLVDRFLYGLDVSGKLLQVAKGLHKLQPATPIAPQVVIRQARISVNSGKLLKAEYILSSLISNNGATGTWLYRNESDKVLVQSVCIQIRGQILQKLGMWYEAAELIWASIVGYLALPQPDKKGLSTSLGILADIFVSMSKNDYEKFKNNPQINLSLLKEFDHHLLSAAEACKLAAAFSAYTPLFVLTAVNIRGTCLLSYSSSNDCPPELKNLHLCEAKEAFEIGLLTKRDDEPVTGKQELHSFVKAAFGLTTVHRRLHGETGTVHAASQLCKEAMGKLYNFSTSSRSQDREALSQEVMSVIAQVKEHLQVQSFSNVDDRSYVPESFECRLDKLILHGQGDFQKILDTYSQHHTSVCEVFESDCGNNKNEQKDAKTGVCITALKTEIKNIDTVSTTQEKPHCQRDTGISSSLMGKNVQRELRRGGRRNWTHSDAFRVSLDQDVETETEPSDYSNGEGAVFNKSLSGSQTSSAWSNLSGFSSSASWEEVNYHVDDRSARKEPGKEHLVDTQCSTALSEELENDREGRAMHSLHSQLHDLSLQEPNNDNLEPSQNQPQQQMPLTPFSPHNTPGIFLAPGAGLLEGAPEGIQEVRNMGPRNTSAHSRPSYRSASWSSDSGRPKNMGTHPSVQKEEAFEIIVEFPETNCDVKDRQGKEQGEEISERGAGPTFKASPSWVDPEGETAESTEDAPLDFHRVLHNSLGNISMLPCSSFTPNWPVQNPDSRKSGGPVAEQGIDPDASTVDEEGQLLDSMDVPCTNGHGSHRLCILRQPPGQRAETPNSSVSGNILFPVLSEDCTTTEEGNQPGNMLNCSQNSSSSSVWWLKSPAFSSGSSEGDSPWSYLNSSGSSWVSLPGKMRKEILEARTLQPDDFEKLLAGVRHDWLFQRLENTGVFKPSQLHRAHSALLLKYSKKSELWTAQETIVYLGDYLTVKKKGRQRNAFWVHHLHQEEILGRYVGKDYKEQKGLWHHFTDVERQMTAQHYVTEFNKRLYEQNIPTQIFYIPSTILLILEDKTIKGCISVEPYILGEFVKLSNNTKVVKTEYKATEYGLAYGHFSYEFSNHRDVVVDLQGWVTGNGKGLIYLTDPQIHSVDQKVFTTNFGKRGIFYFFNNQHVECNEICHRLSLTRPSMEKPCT

| Structure (SMILES) | IC50 (ALPK1) [nM] | IC50 [1] [nM] |
| --- | --- | --- |
| COc1cccc2ccc(NC(=O)c3c(F)cc(N4CCNCC4)cc3F)nc12 [Compound Q001, 2,6-difluoro-N-(8-methoxyquinolin-2-yl)-4-(piperazin-1-yl)benzamide] | 45 | 1240 |
| COc1cccc2ccc(NC(=O)c3c(F)cc(N4CCN(C)CC4)cc3F)nc12 [Compound Q002, 2,6-difluoro-N-(8-methoxyquinolin-2-yl)-4-(4-methylpiperazin-1-yl)benzamide] | 157 | 2300 |
| COc1cccc2ccc(NC(=O)c3c(F)cc(N4CCC(O)CC4)cc3F)nc12 [Compound Q003, 2,6-difluoro-4-(4-hydroxypiperidin-1-yl)-N-(8-methoxyquinolin-2-yl)benzamide] | 369 | 2970 |
| COc1cccc2ccc(NC(=O)c3c(F)ccc(CN4CCNCC4)c3F)nc12 [Compound Q004, 2,6-difluoro-N-(8-methoxyquinolin-2-yl)-3-(piperazin-1-ylmethyl)benzamide] | 33 | 4300 |
| COc1cccc2ccc(NC(=O)c3c(F)ccc(N4CCNCC4)c3F)nc12 [Compound Q005, 2,6-difluoro-N-(8-methoxyquinolin-2-yl)-3-(piperazin-1-yl)benzamide] | 258 | 1370 |
| COc1cc(OC)c2nc(NC(=O)c3c(F)cc(N4CCNCC4)cc3F)ccc2c1 [Compound Q006, N-(6,8-dimethoxyquinolin-2-yl)-2,6-difluoro-4-(piperazin-1-yl)benzamide] | – | 11100 |
| COc1cc(F)cc2ccc(NC(=O)c3c(F)cc(N4CCNCC4)cc3F)nc12 [Compound Q007, 2,6-difluoro-N-(6-fluoro-8-methoxyquinolin-2-yl)-4-(piperazin-1-yl)benzamide] | 176 | 6780 |
| COc1cccc2c(C)cc(NC(=O)c3c(F)cc(N4CCNCC4)cc3F)nc12 [Compound Q008, 2,6-difluoro-N-(8-methoxy-4-methylquinolin-2-yl)-4-(piperazin-1-yl)benzamide] | 149 | 2920 |
| COc1cccc2ncc(NC(=O)c3c(F)cc(N4CCNCC4)cc3F)nc12 [Compound Q009, 2,6-difluoro-N-(8-methoxyquinoxalin-2-yl)-4-(piperazin-1-yl)benzamide] | 178 | 3720 |
| COc1cccc2sc(NC(=O)c3c(F)cc(N4CC5CC(C4)N5)cc3F)nc12 [Compound T001, 4-(3,6-diazabicyclo[3.1.1]heptan-3-yl)-2,6-difluoro-N-(4-methoxybenzo[d]thiazol-2-yl)benzamide] | 95 | 1310 |
| COc1cccc2sc(NC(=O)c3c(C)cc(N4CCNCC4)cc3F)nc12 [Compound T002, 2-fluoro-N-(4-methoxybenzo[d]thiazol-2-yl)-6-methyl-4-(piperazin-1-yl)benzamide] | 176 | 2460 |
| COc1cccc2sc(NC(=O)c3c(F)cc(-c4cccc(C(=O)O)c4)cc3F)nc12 [Compound T003, 3′,5′-difluoro-4′-((4-methoxybenzo[d]thiazol-2-yl)carbamoyl)-[1,1′-biphenyl]-3-carboxylic acid] | 159 | 1490 |
| CCN1CCN(c2cc(F)c(C(=O)Nc3nc4c(OC)cccc4s3)c(F)c2)CC1 [Compound T004, 4-(4-ethylpiperazin-1-yl)-2,6-difluoro-N-(4-methoxybenzo[d]thiazol-2-yl)benzamide] | 131 | 1980 |
| CCCN1CCN(c2cc(F)c(C(=O)Nc3nc4c(OC)cccc4s3)c(F)c2)CC1 [Compound T005, 2,6-difluoro-N-(4-methoxybenzo[d]thiazol-2-yl)-4-(4-propylpiperazin-1-yl)benzamide] | 81 | 2420 |
| COc1cccc2sc(NC(=O)c3c(Cl)cc(N4CCNCC4)cc3Cl)nc12 [Compound T008, 2,6-dichloro-N-(4-methoxybenzo[d]thiazol-2-yl)-4-(piperazin-1-yl)benzamide] | 57 | 1950 |
| O=C(Nc1nc2c(Br)cccc2s1)c1c(F)cccc1F [Compound T009, N-(4-bromobenzo[d]thiazol-2-yl)-2,6-difluorobenzamide] | 415 | 5860 |
| COc1cccc2sc(NC(=O)c3c(F)cc(N4CCNCC4)cc3Cl)nc12 [Compound T010, 2-chloro-6-fluoro-N-(4-methoxybenzo[d]thiazol-2-yl)-4-(piperazin-1-yl)benzamide] | 49 | 1640 |

| Structure (SMILES) | IC50 (ALPK1) [nM] | IC50 [1] [nM] |
| --- | --- | --- |
| COC(=O)C1CCN(c2cc(F)c(C(=O)Nc3nc4c(OC)cccc4s3)c(F)c2)CC1 [Compound T011, methyl 1-(3,5-difluoro-4-((4-methoxybenzo[d]thiazol-2-yl)carbamoyl)phenyl)piperidine-4-carboxylate] | 420 | 6650 |
| O=C(Nc1nc2c(C3CC3)cccc2s1)c1c(F)cccc1F [Compound T012, N-(4-cyclopropylbenzo[d]thiazol-2-yl)-2,6-difluorobenzamide] | 970 | 5950 |
| COc1cccc2sc(NC(=O)c3c(F)cc(NCCN(C)C)cc3F)nc12 [Compound T013, 4-((2-(dimethylamino)ethyl)amino)-2,6-difluoro-N-(4-methoxybenzo[d]thiazol-2-yl)benzamide] | 507 | 5220 |
| COc1cccc2sc(NC(=O)c3c(F)cc(N4CCNCC4C)cc3F)nc12 (centres unmarked) [Compound T014, 2,6-difluoro-N-(4-methoxybenzo[d]thiazol-2-yl)-4-(2-methylpiperazin-1-yl)benzamide] | – | 1310 |
| COc1cccc2sc(NC(=O)c3c(F)cc(N4CCNC(C)C4)cc3F)nc12 (centres unmarked) [Compound T015, 2,6-difluoro-N-(4-methoxybenzo[d]thiazol-2-yl)-4-(3-methylpiperazin-1-yl)benzamide] | 349 | 4470 |
| O=C(Nc1nc2c(Br)cccc2s1)c1c(F)ccc(N2CCNCC2)c1F [Compound T016, N-(4-bromobenzo[d]thiazol-2-yl)-2,6-difluoro-3-(piperazin-1-yl)benzamide] | 47 | 2220 |
| COc1cccc2sc(NC(=O)c3c(F)cc(CN4CCNCC4)cc3F)nc12 [Compound T018, 2,6-difluoro-N-(4-methoxybenzo[d]thiazol-2-yl)-4-(piperazin-1-ylmethyl)benzamide] | – | 2460 |
| O=C(Nc1nc2c(Br)cccc2s1)c1c(F)cc(CN2CCNCC2)cc1F [Compound T020, N-(4-bromobenzo[d]thiazol-2-yl)-2,6-difluoro-4-(piperazin-1-ylmethyl)benzamide] | 100 | 1570 |
| O=C(Nc1nc2c(Br)cccc2s1)c1c(F)cc(CCN2CCNCC2)cc1F [Compound T021, N-(4-bromobenzo[d]thiazol-2-yl)-2,6-difluoro-4-(2-(piperazin-1-yl)ethyl)benzamide] | 148 | 1200 |
| COc1cccc2sc(NC(=O)c3c(F)cc(N4CCOCC4)cc3F)nc12 [Compound T022, 2,6-difluoro-N-(4-methoxybenzo[d]thiazol-2-yl)-4-morpholinobenzamide] | 295 | 2010 |
| COc1cccc2sc(NC(=O)c3c(F)cc(NCCO)cc3F)nc12 [Compound T023, 2,6-difluoro-4-((2-hydroxyethyl)amino)-N-(4-methoxybenzo[d]thiazol-2-yl)benzamide] | 289 | 4300 |
| COc1cccc2sc(NC(=O)c3c(F)cc(N4CCN(Cc5ccccc5)C(=O)C4)cc3F)nc12 [Compound T024, 4-(4-benzyl-3-oxopiperazin-1-yl)-2,6-difluoro-N-(4-methoxybenzo[d]thiazol-2-yl)benzamide] | 321 | 1150 |
| O=C(Nc1nc2c(F)cc(F)cc2s1)c1c(F)cc(N2CCNCC2)cc1F [Compound T035] | – | 5020 |
| O=C(Nc1nc2ccccc2s1)c1c(F)cc(N2CCNCC2)cc1F [Compound T041, N-(benzo[d]thiazol-2-yl)-2,6-difluoro-4-(piperazin-1-yl)benzamide] | – | 3960 |
| CC(C)Oc1cccc2sc(NC(=O)c3c(F)cc(N4CCNCC4)cc3F)nc12 [Compound T056, 2,6-difluoro-N-(4-isopropoxybenzo[d]thiazol-2-yl)-4-(piperazin-1-yl)benzamide] | – | 7400 |
| CCOc1cccc2sc(NC(=O)c3c(F)cc(N4CCNCC4)cc3F)nc12 [Compound T057, N-(4-ethoxybenzo[d]thiazol-2-yl)-2,6-difluoro-4-(piperazin-1-yl)benzamide] | – | 8700 |
